From ChEMBL document CHEMBL3991601, “The target landscape of clinical kinase drugs” (Science, 2017)
Calls of active or inactive are those of the source. Cut-off read from the data, not from the text of the source, for most assays here: actives have a measured Kd and inactives only a lower limit.

Assays:
[1] = target: Tyrosine-protein kinase ABL2 (Homo sapiens, UniProt P42684)
[2] = target: Actin-related protein 2 (Homo sapiens, UniProt P61160)
[3] = target: Cyclin-dependent kinase 7 (Homo sapiens, UniProt P50613)
Sequence of Cyclin-dependent kinase 7 (P50613 whole entry): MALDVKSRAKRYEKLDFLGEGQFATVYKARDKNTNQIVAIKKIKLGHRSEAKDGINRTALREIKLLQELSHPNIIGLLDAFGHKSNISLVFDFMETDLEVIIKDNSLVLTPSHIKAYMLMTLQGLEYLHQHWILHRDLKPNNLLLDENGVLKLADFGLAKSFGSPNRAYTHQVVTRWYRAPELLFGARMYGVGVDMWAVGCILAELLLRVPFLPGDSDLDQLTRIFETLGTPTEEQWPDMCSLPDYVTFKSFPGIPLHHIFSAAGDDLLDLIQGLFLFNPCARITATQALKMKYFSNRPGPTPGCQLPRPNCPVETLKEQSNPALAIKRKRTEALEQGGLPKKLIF

[4] = target: Tyrosine-protein kinase Fer (Homo sapiens, UniProt P16591)
Sequence of Tyrosine-protein kinase Fer (P16591 whole entry): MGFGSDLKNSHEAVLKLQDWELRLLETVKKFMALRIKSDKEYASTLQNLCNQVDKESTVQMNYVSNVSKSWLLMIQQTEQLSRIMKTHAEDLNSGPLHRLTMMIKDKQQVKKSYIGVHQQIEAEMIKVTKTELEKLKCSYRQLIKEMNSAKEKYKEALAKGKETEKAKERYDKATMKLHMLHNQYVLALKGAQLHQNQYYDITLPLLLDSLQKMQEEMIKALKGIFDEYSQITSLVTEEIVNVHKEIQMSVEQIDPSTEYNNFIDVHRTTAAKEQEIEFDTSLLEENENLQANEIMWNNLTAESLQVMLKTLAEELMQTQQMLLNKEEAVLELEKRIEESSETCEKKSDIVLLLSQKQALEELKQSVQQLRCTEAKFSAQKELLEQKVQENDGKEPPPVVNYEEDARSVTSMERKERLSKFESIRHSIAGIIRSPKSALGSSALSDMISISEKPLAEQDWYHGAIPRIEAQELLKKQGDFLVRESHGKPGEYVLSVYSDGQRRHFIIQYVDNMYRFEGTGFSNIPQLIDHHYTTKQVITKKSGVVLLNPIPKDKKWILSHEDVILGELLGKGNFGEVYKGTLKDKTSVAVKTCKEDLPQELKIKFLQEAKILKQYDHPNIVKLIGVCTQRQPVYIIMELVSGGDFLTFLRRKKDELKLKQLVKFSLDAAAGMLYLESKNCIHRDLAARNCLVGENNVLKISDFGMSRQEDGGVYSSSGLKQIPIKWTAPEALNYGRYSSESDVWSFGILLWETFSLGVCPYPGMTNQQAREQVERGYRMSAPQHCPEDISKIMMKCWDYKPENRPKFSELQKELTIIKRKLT

[5] = target: Fibroblast growth factor receptor 1 (Homo sapiens, UniProt P11362)
Sequence of Fibroblast growth factor receptor 1 (P11362 whole entry): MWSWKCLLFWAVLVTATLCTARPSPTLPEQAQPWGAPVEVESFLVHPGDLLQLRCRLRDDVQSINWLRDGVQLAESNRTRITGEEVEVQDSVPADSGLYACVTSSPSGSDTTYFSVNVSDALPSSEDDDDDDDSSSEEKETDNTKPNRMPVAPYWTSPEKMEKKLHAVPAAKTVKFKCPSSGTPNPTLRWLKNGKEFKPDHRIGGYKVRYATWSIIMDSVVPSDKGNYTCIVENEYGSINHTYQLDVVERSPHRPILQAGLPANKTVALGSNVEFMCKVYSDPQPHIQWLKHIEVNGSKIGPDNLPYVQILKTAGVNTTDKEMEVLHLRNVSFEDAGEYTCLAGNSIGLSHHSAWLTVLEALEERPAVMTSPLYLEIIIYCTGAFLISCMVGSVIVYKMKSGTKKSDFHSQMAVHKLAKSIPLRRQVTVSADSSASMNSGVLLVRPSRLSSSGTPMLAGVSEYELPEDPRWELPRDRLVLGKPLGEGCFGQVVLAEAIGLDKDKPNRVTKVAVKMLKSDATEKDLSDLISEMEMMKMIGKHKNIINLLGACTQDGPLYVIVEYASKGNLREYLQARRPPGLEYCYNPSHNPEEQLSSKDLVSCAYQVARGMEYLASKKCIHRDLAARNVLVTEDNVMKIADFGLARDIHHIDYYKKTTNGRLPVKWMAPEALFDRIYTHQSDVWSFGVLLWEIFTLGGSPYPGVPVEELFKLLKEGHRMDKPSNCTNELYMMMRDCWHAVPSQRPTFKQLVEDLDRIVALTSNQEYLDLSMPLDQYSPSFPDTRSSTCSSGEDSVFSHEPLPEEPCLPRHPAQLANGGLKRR

[6] = target: Glycogen synthase kinase-3 beta (Homo sapiens, UniProt P49841)
Sequence of Glycogen synthase kinase-3 beta (P49841 whole entry): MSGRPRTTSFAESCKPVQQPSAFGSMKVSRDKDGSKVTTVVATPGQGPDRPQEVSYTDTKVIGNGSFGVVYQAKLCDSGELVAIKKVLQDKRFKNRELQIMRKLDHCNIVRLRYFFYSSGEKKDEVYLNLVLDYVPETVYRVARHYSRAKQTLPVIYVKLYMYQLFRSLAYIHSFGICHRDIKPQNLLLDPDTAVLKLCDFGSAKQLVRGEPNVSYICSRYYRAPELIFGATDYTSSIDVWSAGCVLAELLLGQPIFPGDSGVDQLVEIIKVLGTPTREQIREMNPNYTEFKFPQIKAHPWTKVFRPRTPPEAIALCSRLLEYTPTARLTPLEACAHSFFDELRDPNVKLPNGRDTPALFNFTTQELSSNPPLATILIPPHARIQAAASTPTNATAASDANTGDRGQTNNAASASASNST

[7] = target: MAP/microtubule affinity-regulating kinase 3 (Homo sapiens, UniProt P27448)
Sequence of MAP/microtubule affinity-regulating kinase 3 (P27448 whole entry): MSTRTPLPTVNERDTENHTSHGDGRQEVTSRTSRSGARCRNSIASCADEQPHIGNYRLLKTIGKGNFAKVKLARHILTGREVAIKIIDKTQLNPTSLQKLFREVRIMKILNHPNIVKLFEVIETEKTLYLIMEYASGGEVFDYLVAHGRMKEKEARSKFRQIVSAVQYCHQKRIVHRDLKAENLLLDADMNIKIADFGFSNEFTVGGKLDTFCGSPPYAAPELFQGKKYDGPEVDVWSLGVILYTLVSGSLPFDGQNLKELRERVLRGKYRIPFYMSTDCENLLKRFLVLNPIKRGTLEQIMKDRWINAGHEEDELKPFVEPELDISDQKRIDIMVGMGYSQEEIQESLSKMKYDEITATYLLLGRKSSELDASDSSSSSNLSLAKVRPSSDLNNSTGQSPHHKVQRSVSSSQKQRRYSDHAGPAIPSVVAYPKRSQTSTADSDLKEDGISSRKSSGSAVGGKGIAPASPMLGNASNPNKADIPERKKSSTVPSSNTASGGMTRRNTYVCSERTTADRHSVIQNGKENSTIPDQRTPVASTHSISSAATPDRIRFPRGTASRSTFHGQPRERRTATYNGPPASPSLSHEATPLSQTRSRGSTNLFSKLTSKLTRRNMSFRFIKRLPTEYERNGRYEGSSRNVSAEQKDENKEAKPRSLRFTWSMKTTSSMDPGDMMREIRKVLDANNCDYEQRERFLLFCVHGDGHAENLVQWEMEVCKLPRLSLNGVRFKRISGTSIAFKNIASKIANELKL

[8] = target: T1, Membrane-associated tyrosine- and threonine-specific cdc2-inhibitory kinase (Homo sapiens, UniProt Q99640)
T1 sequence (Q99640 whole entry): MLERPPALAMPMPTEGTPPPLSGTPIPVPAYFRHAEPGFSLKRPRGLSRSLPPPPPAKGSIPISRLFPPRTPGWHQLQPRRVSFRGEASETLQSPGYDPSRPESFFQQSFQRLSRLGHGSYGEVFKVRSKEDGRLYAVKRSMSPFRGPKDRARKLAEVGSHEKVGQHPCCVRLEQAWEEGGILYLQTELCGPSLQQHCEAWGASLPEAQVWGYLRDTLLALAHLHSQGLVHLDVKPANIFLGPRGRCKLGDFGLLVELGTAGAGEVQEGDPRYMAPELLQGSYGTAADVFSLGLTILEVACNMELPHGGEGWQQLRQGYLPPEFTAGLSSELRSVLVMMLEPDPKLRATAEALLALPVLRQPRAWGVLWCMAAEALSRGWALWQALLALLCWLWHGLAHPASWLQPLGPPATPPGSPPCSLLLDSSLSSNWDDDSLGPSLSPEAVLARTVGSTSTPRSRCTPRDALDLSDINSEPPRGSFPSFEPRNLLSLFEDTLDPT

[9] = target: 26S proteasome regulatory subunit 6B (Homo sapiens, UniProt P43686)
[10] = target: Receptor-interacting serine/threonine-protein kinase 3 (Homo sapiens, UniProt Q9Y572)
Sequence of Receptor-interacting serine/threonine-protein kinase 3 (Q9Y572 whole entry): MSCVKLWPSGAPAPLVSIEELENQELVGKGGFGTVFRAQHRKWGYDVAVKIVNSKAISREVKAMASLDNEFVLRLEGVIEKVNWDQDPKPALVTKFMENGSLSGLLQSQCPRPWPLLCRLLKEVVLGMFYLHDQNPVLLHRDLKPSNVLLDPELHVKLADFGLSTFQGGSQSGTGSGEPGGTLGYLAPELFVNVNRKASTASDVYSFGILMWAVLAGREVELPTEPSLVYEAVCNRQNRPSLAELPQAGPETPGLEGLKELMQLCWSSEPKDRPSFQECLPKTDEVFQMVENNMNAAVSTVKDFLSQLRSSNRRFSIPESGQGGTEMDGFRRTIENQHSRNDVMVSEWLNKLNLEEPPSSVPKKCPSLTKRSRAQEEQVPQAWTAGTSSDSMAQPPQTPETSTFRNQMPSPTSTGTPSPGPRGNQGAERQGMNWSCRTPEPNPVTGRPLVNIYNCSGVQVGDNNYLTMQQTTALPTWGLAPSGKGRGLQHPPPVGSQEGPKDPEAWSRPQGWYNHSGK

[11] = target: T2, STE20-related kinase adapter protein alpha (Homo sapiens, UniProt Q7RTN6)
T2 sequence (Q7RTN6 whole entry): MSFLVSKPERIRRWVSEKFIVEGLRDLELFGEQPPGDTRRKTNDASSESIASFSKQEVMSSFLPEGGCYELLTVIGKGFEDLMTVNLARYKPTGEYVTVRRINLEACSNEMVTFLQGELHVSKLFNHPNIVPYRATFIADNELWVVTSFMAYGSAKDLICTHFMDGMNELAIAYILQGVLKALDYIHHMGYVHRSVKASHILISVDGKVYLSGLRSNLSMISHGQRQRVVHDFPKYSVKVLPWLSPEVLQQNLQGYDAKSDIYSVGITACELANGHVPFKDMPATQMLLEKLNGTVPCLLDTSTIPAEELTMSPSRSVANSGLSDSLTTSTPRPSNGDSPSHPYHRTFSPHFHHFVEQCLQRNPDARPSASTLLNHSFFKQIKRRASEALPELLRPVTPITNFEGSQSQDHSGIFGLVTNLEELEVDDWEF

[12] = target: T3, Serine/threonine-protein kinase TAO2 (Homo sapiens, UniProt Q9UL54)
T3 sequence (Q9UL54 whole entry): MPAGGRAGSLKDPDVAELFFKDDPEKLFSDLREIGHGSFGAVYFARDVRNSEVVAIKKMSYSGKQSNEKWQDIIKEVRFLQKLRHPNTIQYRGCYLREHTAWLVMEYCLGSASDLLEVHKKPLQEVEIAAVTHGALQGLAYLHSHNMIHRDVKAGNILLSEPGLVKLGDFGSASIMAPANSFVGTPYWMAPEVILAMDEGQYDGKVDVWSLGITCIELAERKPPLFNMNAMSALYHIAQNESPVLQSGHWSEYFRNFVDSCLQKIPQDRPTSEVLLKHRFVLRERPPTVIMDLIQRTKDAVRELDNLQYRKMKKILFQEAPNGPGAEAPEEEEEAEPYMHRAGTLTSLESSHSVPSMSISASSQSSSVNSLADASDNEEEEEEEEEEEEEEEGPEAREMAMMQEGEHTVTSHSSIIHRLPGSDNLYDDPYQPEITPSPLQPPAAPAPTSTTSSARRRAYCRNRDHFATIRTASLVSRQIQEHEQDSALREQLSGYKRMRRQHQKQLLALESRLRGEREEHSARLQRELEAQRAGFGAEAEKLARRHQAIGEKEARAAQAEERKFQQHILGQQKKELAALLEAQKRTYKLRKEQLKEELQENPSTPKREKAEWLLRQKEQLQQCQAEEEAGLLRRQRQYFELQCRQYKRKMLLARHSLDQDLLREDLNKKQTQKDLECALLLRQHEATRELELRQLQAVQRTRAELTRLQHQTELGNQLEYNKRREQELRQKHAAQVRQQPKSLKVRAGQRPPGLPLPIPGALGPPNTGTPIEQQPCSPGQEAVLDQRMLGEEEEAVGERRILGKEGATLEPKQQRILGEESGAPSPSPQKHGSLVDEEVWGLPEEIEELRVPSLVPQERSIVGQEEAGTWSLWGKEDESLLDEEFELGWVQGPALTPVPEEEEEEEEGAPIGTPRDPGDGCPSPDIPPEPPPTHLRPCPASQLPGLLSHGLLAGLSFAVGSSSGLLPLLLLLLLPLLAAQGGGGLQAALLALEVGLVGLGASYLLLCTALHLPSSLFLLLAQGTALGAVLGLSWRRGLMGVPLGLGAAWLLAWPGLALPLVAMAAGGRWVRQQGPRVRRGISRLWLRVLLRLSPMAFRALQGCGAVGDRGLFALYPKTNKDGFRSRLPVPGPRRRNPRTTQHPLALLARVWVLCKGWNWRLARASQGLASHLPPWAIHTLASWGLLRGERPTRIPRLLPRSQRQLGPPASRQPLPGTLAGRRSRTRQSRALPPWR

[13] = target: Mitogen-activated protein kinase kinase kinase 20 (Homo sapiens, UniProt Q9NYL2)
Sequence of Mitogen-activated protein kinase kinase kinase 20 (Q9NYL2 whole entry, canonical isoform): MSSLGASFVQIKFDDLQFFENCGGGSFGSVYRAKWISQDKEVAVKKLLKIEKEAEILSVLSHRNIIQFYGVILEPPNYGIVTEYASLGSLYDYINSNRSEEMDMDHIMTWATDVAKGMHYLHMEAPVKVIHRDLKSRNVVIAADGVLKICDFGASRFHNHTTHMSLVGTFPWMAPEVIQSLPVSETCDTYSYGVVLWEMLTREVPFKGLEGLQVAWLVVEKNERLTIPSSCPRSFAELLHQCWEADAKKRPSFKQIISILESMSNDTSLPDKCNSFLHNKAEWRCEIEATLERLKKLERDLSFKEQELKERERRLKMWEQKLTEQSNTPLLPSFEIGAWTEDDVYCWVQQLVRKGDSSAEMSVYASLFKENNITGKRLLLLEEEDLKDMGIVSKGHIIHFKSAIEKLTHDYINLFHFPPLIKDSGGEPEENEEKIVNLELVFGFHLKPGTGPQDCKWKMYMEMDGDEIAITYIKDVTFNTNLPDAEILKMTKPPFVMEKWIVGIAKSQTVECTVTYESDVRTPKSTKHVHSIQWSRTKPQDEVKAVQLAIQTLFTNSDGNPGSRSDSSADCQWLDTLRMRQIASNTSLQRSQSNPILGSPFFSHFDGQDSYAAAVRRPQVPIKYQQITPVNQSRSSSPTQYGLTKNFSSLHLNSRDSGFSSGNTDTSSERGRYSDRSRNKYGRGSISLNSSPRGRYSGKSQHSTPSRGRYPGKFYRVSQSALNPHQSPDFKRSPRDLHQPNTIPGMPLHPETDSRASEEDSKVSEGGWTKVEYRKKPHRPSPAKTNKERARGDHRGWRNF

[14] = target: S-adenosylmethionine synthase isoform type-2 (Homo sapiens, UniProt P31153)
Sequence of S-adenosylmethionine synthase isoform type-2 (P31153 whole entry, canonical isoform): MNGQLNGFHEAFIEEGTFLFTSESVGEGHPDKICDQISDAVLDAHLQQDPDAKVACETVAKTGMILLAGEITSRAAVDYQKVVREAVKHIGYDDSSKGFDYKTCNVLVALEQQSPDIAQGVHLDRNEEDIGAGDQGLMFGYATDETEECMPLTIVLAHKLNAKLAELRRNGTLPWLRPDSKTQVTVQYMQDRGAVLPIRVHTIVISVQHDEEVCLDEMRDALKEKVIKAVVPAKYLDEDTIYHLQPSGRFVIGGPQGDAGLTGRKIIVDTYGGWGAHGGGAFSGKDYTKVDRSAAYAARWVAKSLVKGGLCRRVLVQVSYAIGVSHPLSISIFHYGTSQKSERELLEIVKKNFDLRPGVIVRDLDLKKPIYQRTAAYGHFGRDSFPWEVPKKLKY
Note: in the data inactive means no Kd found up to 30 µM.

Compound	Kd [1]	Kd [2]	Kd [3]	Kd [4]	Kd [5]	Kd [6]	Kd [7]	Kd [8]	Kd [9]	Kd [10]	Kd [11]	Kd [12]	Kd [13]	Kd [14]
Cn1cc(-c2ccc3nnc(C(F)(F)c4ccc5ncccc5c4)n3n2)cn1 [JNJ-38877605]	> 30 µM (inactive)	> 30 µM (inactive)	> 30 µM (inactive)	> 30 µM (inactive)	> 30 µM (inactive)	> 30 µM (inactive)	> 30 µM (inactive)	> 30 µM (inactive)	> 30 µM (inactive)	> 30000 nM (inactive)	> 30 µM (inactive)	> 30 µM (inactive)	> 30 µM (inactive)	
COC(=O)N[C@@H](C)CNc1nccc(-c2cn(C(C)C)nc2-c2cc(Cl)cc(NS(C)(=O)=O)c2F)n1 [ENCORAFENIB]	> 30 µM (inactive)	> 30 µM (inactive)	> 30 µM (inactive)	> 30 µM (inactive)	> 30 µM (inactive)	0.425 µM (active)	> 30 µM (inactive)	> 30 µM (inactive)	> 30 µM (inactive)	967 nM (active)	> 30 µM (inactive)	> 30 µM (inactive)		> 30 µM (inactive)

Further lines, results first:

Kd [1]	Kd [2]	Kd [3]	Kd [4]	Kd [5]	Kd [6]	Kd [7]	Kd [8]	Kd [9]	Kd [10]	Kd [11]	Kd [12]	Kd [13]	Kd [14]	Compound
> 30 µM (inactive)	> 30 µM (inactive)	> 30 µM (inactive)		> 30 µM (inactive)	> 30 µM (inactive)	> 30 µM (inactive)	> 30 µM (inactive)	> 30 µM (inactive)	316 nM (active)	> 30 µM (inactive)	> 30 µM (inactive)	> 30 µM (inactive)	> 30 µM (inactive)	COc1cc2nccc(Oc3ccc(NC(=O)NC4CC4)c(Cl)c3)c2cc1C(N)=O [LENVATINIB]
	> 30 µM (inactive)	> 30 µM (inactive)	> 30 µM (inactive)	> 30 µM (inactive)	> 30 µM (inactive)	> 30 µM (inactive)	> 30 µM (inactive)	> 30 µM (inactive)	506 nM (active)	> 30 µM (inactive)	> 30 µM (inactive)	0.065 µM (active)		Cc1ccc(NC(=O)c2ccc(CN3CC[C@H](N(C)C)C3)c(C(F)(F)F)c2)cc1Nc1nccc(-c2cncnc2)n1 [BAFETINIB]
	> 30 µM (inactive)	> 30 µM (inactive)	> 30 µM (inactive)	> 30 µM (inactive)	> 30 µM (inactive)	> 30 µM (inactive)	> 30 µM (inactive)	> 30 µM (inactive)	> 30000 nM (inactive)	> 30 µM (inactive)	> 30 µM (inactive)	> 30 µM (inactive)	> 30 µM (inactive)	COCCNCc1ccc(-c2cc3nccc(Oc4ccc(NC(=S)NC(=O)Cc5ccc(F)cc5)cc4F)c3s2)nc1 [GLESATINIB]
